“Also recorded” adds a separate entry of the source.
The sequences below were run on PBMCs isolated from naturally M. bovis-infected cattle.
Type: cell-based, cattle (Bos taurus taurus)
With “AANKQKQELDEISTNIRQAGVQYSRADEEQQQALSSQMGF [compound 8]” the “recognition of individual peptide (IFN-γ ELISPOT response, Z-scores)” value (“recognition of individual peptide” for short) was “far stronger response”.
For “GQWRGAAGTAAQAAVVRFQEAANKQKQELDEISTNIRQAG [compound 7]”, the “recognition of individual peptide” value was “far stronger response”.
“SHHDNAAVDASSGVEAAAGL (artificial protein fragment) [compound 36, short Rv3615c peptide]” was tested, and the “recognition of individual peptide” value was “poor recognition could be compensated”.
In the case of “MAEMKTDAATLAQEAGNFERISGDLKTQIDQVESTAGSLQ [compound 5]”, the “recognition of individual peptide” value is reported as “poorly recognized”.
In the case of “NVTSIHSLLDEGKQSLTKLAAAWGGSGSEAYQGVQQKWDA [peptide 2]”, the “recognition of individual peptide” value is reported as “poorly and infrequently recognized”.
With “MTENLTVQPERLGVLASHHDNAAVDASSGVEAAAGLGESV (artificial protein fragment) [compound 9, long Rv3615c fragment]” the “recognition of individual peptide” value was “poorly recognized”.
For “AITHGPYCSQFNDTLNVYLT (artificial protein fragment) [compound 39, short Rv3615c peptide]”, the “recognition of individual peptide” value was “poor recognition could be compensated”.
With “AITHGPYCSQFNDTLNVYLTAHNALGSSLHTAGVDLAKSL (artificial protein fragment) [compound 10, long Rv3615c fragment]” the “recognition of individual peptide” value was “poorly recognized”.
For “KQSLTKLAAAWGGSGS (artificial protein fragment) [peptide 17, short ESAT-6 peptide]”, the “recognition of individual peptide” value was “strong epitope”.
For QEAGNFERISGDLKTQ [peptide 25], the “recognition of individual peptide” value was “strongly recognized; also recorded: recognized promiscuously”.

— patent US12699090B2 (priority 2019, dated 2026)
